The term IC50 denotes the point on the concentration scale where inhibition reaches its midpoint. Low readings indicate greater potency, high ones weaker potency.

This passage reports IC50 results from patent US20160129011A1, “BICYCLO 2,3-BENZODIAZEPINES AND SPIROCYCLICALLY SUBSTITUTED 2,3-BENZODIAZEPINES” (BAYER PHARMA AKTIENGESELLSCHAFT, priority 2013, published 2016).

In one experiment the test system is MOLM-13 cells. Put plainly: Cell proliferation assay (alamarBlue), MOLM-13. It is filed as cell-based. Particulars: acute myeloid leukaemia cell line, 96 h incubation. As to the method: (§1) In accordance with the invention, the ability of the substances to inhibit cell proliferation was determined. Cell viability was determined by means of the alamarBlue® reagent (Invitrogen) in a Victor X3 Multilabel Reader (Perkin Elmer). The excitation wavelength was 530 nm and the emission wavelength […].
The MOLM-13 cells (DSMZ, ACC 554) were sown at a concentration of 4000 cells/well in 100 μl of growth medium (RPMI1640, 10% FCS) on 96-well microtitre plates.
(§2) The MDA-MB-231 cells (DSMZ, ACC 732) were sown at a concentration of 4000 cells/well in 100 μl of growth medium (DMEM/Ham's F12 medium, 10% FCS) on 96-well microtitre plates. After overnight incubation at 37° C., the fluorescence values (CI values) were determined. Then the plates were treated with various substance dilutions (1E-5 M, 3E-6 M, 1E-6 M, 3E-7 M, 1E-7 M, 3E-8 M, 1E-8 M) and incubated at 37° C. for 72 (MV4-11, LOX-IMVI cells), 96 (MOLM-13, B16F10, […] cells), 120 (MOLP-8, KMS-12-PE cells) or 168 (LAPC-4 cells) hours. Subsequently, the fluorescence values were determined (CO values). For the data analysis, the CI values were subtracted from the CO values and the results were compared between cells which had been treated with various dilutions of the substance or only with buffer solution. This was used to calculate the IC50 values (substance concentration required for 50% inhibition of cell proliferation).
(§3) The substances were examined in the cell lines of Table 1 which, in an exemplary manner, represent the stated indications: […]
A general note: Resazurin is reduced to fluorescent resorufin, in cell work by metabolically active cells.

Another experiment addresses T1, BRD4 (BD1) (Homo sapiens, UniProt O60885).
T1 construct: longer constructs also being possible, preferably amino acids 44-168; made in house; host or cells: E. coli
Put plainly: Binding assay BRD4/acetylated peptide H4 (TR-FRET protein-protein interaction assay). Particulars: BRD4 (BD1) / acetylated histone H4 peptide. From the text:
To assess the BRD4 binding strength of the substances described in this application, the ability thereof to inhibit the interaction between BRD4 (BD1) and acetylated histone H4 in a dose-dependent manner was quantified.
For this purpose, a time-resolved fluorescence resonance energy transfer (TR-FRET) assay was used, which measures the binding between N-terminally His6-tagged BRD4 (BD1) (amino acids 67-152, longer constructs also being possible, preferably amino acids 44-168) and a synthetic acetylated histone H4 (Ac—H4) peptide with sequence GRGK(Ac)GGK(Ac)GLGK(Ac)GGAK(Ac)RHGSGSK-biotin. The recombinant BRD4 protein produced in-house according to Filippakopoulos et al., Nature, 2010, 468:1119-1123 was expressed in E. coli and purified by means of (Ni-NTA) affinity and (Sephadex G-75) size exclusion chromatography. The Ac—H4 peptide can be purchased, for example, from Biosyntan (Berlin, Germany).
In the assay, typically 11 different concentrations of each substance (0.1 nM, 0.33 nM, 1.1 nM, 3.8 nM, 13 nM, 44 nM, 0.15 μM, 0.51 μM, 1.7 μM, 5.9 μM and 20 μM) were analysed as duplicates on the same microtitre plate. For this purpose, 100-fold concentrated solutions in DMSO were prepared by serial dilutions (1:3.4) of a 2 mM stock solution into a clear, 384-well microtitre plate (Greiner Bio-One, Frickenhausen, Germany). From this, 50 nl were transferred into a black test plate (Greiner Bio-One, Frickenhausen, Germany). The test was started by the addition of 2 μl of a 2.5-fold concentrated BRD4 solution (final concentration typically 10 nM in the 5 μl of reaction volume) in aqueous assay buffer [50 mM HEPES pH 7.5, 50 mM sodium chloride (NaCl), 0.25 mM CHAPS and 0.05% serum albumin (BSA)] to the substances in the test plate. This was followed by a 10-minute incubation step at 22° C. for the pre-equilibration of putative complexes between BRD4 and the substances.
The mixture was then incubated in the dark at 22° C. for one hour and then at 4° C. for at least 3 hours and for no longer than overnight. The formation of BRD4/Ac—H4 complexes was determined by the measurement of the resonance energy transfer from the streptavidin-Eu cryptate to the anti-6His-XL665 antibody present in the reaction. For this purpose, the fluorescence emission was measured at 620 nm and 665 nm after excitation at 330-350 nm in a TR-FRET measuring instrument, for example a Rubystar or Pherastar (both from BMG Lab Technologies, Offenburg, Germany) or a Viewlux (Perkin-Elmer). The ratio of the emissions at 665 nm and at […] was taken as an indicator of the amount of BRD4/Ac—H4 complexes formed.
The data (ratios) obtained were normalized, with 0% inhibition corresponding to the mean from the measurements for a set of controls (typically 32 data points) in which all the reagents were present. In these, in place of test substances, 50 nl of DMSO (100%) were used. Inhibition of 100% corresponded to the mean from the measurements for a set of controls (typically 32 data points) in which all the reagents except BRD4 were present. The IC50 was determined by regression analysis based on a 4-parameter equation (minimum, maximum, IC50, Hill; Y=max+(min−max)/(1+(X/IC50)^Hill)).

The test system of the next experiment is MOLP-8 cells. The experiment is described as follows: Cell proliferation assay (alamarBlue), MOLP-8. It is filed as cell-based. The conditions noted are these: multiple myeloma cell line, 120 h incubation. As to the method:
as §1
The MOLP-8 cells (DSMZ, ACC 569) were sown at a concentration of 4000 cells/well in 100 μl of growth medium (RPMI1640, 20% FCS) on 96-well microtitre plates.
as §2, §3

In a further experiment the test system is B16F10 cells. The experiment is described as follows: Cell proliferation assay (alamarBlue), B16F10. The experiment is classed as cell-based. Particulars: melanoma (BRAF wild-type) cell line, 96 h incubation. As to the method:
as §1
The B16F10 cells (ATCC, CRL-6475) were sown at a concentration of 300-500 cells/well in 100 μl of growth medium (DMEM with phenol red, 10% FCS) on 96-well microtitre plates.
as §2, §3

For `CNC(=O)N1N=C(c2ccc(N3C[C@@H]4C[C@H]3CN4)cc2)c2cc(OC)c(OC)cc2CC1C` (relative stereo) [Example 19, [1S-(1R*,4R*)]-1-[4-(2,5-Diazabicyclo[2.2.1]hept-2-yl)phenyl]-7,8-dimethoxy-4,5-dihydro-N,4-dimethyl-3H-2,3-benzodiazepine-3-carboxamide], the 50% inhibitory concentration (IC50) in the experiment on MOLM-13 cells (Homo sapiens, MOLM-13) came out at 170 nM; on BRD4 (BD1), 140 nM; in the experiment with MOLP-8 cells (Homo sapiens, MOLP-8) it was 100 nM; in the experiment on B16F10 cells (Mus musculus, B16-F10), 150 nM.

On to `CNC(=O)N1N=C(c2ccc(N3C[C@@H]4C[C@H]3CN4C)cc2)c2cc(OC)c(OC)cc2C[C@H]1C` (relative stereo) [Example 40.1, [1S-[1R*,2(S*),4R*]]-7,8-Dimethoxy-N,4-dimethyl-1-[4-(5-methyl-2,5-diazabicyclo[2.2.1]hept-2-yl)phenyl]-4,5-dihydro-3H-2,3-benzodiazepine-3-carboxamide], for which the IC50 with MOLM-13 cells is 200 nM; at BRD4 (BD1), 70 nM; with MOLP-8 cells, 100 nM; in the experiment with B16F10 cells, 210 nM.

For `CNC(=O)N1N=C(c2ccc(N3C[C@H]4CN(C)C[C@H]4C3)cc2)c2cc(OC)c(OC)cc2CC1C` (mixture of isomers) [Example 33, (±)-7,8-dimethoxy-N,4-dimethyl-1-{4-[(3aR,6aS)-5-methylhexahydropyrrolo[3,4-c]pyrrol-2(1H)-yl]phenyl}-4,5-dihydro-3H-2,3-benzodiazepine-3-carboxamide], the 50% inhibitory concentration (IC50) was found to be 220 nM in the experiment on MOLM-13 cells (Homo sapiens, MOLM-13); 90 nM on BRD4 (BD1); 110 nM in the experiment on MOLP-8 cells (Homo sapiens, MOLP-8).

On to `CNC(=O)N1N=C(c2ccc(F)c(N3C[C@@H]4C[C@H]3CN4C)c2)c2cc(OC)c(OC)cc2CC1C` (relative stereo) [Example 41, [1S-(1R*,4R*)]-1-[4-fluoro-3-(5-methyl-2,5-diazabicyclo[2.2.1]hept-2-yl)phenyl]-7,8-dimethoxy-4,5-dihydro-N,4-dimethyl-3H-2,3-benzodiazepine-3-carboxamide], for which the IC50 came out at 1140 nM in the experiment with MOLM-13 cells (Homo sapiens, MOLM-13); 430 nM on BRD4 (BD1); 690 nM in the experiment with MOLP-8 cells (Homo sapiens, MOLP-8); 1470 nM in the experiment on B16F10 cells (Mus musculus, B16-F10).

Regarding `CNC(=O)N1N=C(c2ccc(N3CC4(CCS4(=O)=O)C3)cc2)c2cc(OC(F)(F)F)ccc2CC1C` (racemic) [Example 18, (±)-1-[4-(1,1-dioxido-1-thia-6-azaspiro[3.3]hept-6-yl)phenyl]-N,4-dimethyl-8-(trifluoromethoxy)-4,5-dihydro-3H-2,3-benzodiazepine-3-carboxamide], the IC50 is 70 nM in the experiment with MOLM-13 cells (Homo sapiens, MOLM-13); 40 nM on BRD4 (BD1); 60 nM in the experiment with MOLP-8 cells (Homo sapiens, MOLP-8); 60 nM with B16F10 cells (Mus musculus, B16-F10).

`CNC(=O)N1N=C(c2ccc(N3CCC4(CCCC4)CC3)cc2)c2cc(OC)c(OC)cc2CC1C` (racemic) [Example 9, (±)-1-[4-(8-azaspiro[4.5]dec-8-yl)phenyl]-7,8-dimethoxy-N,4-dimethyl-4,5-dihydro-3H-2,3-benzodiazepine-3-carboxamide]: the IC50 was determined as 500 nM with MOLM-13 cells (Homo sapiens, MOLM-13); 250 nM on BRD4 (BD1); 460 nM in the experiment on MOLP-8 cells (Homo sapiens, MOLP-8); 140 nM in the experiment on B16F10 cells (Mus musculus, B16-F10).

`CNC(=O)N1N=C(c2ccc(N3CCC4OCCC4C3)cc2)c2cc(OC)c(OC)cc2CC1C` (racemic) [Example 36, (±)-1-[4-(hexahydrofuro[3,2-c]pyridin-5(4H)-yl)phenyl]-7,8-dimethoxy-N,4-dimethyl-4,5-dihydro-3H-2,3-benzodiazepine-3-carboxamide]: the 50% inhibitory concentration (IC50) was determined as 150 nM in the experiment on MOLM-13 cells (Homo sapiens, MOLM-13); 40 nM at BRD4 (BD1); 90 nM with MOLP-8 cells (Homo sapiens, MOLP-8); 70 nM in the experiment on B16F10 cells (Mus musculus, B16-F10).

For `CNC(=O)N1N=C(c2ccc(N3CC4(CN(C(=O)OC(C)(C)C)C4)C3)cc2)c2cc(OC)c(OC)cc2CC1C` (racemic) [Example 8, tert-butyl 6-{4-[(±)-7,8-dimethoxy-4-methyl-3-(methylcarbamoyl)-4,5-dihydro-3H-2,3-benzodiazepine-1-yl]phenyl}-2,6-diazaspiro[3.3]heptane-2-carboxylate], the concentration for half-maximal inhibition (IC50) was 260 nM in the experiment on MOLM-13 cells (Homo sapiens, MOLM-13); 140 nM at BRD4 (BD1); 160 nM in the experiment on MOLP-8 cells (Homo sapiens, MOLP-8); 180 nM in the experiment on B16F10 cells (Mus musculus, B16-F10).

`CNC(=O)N1N=C(c2ccc(N3CC4(CN(C(=O)OC(C)(C)C)C4)C3)cc2)c2cc(OC)c(OC)cc2C[C@@H]1C` [Example 8.1, tert-butyl 6-{4-[(4S)-7,8-dimethoxy-4-methyl-3-(methylcarbamoyl)-4,5-dihydro-3H-2,3-benzodiazepine-1-yl)phenyl}-2,6-diazaspiro[3.3]heptane-2-carboxylate]: the half-inhibitory concentration (IC50) was 180 nM in the experiment on MOLM-13 cells (Homo sapiens, MOLM-13); 60 nM on BRD4 (BD1); 100 nM with MOLP-8 cells (Homo sapiens, MOLP-8); 130 nM in the experiment with B16F10 cells (Mus musculus, B16-F10).

Take `CNC(=O)N1N=C(c2ccc(-c3ccc4c(c3)OCO4)cc2)c2cc(OC)c(OC)cc2CC1C` (racemic) [Example 27, (±)-1-[4-(1,3-benzodioxol-5-yl)phenyl]-7,8-dimethoxy-N,4-dimethyl-4,5-dihydro-3H-2,3-benzodiazepine-3-carboxamide]: the concentration for half-maximal inhibition (IC50) was 480 nM in the experiment with MOLM-13 cells (Homo sapiens, MOLM-13); 110 nM on BRD4 (BD1); 460 nM in the experiment with MOLP-8 cells (Homo sapiens, MOLP-8); 350 nM in the experiment on B16F10 cells (Mus musculus, B16-F10).

On to `CNC(=O)N1N=C(c2ccc(N3CC4(CCS4(=O)=O)C3)cc2)c2cc(OC(F)(F)F)ccc2C[C@@H]1C` [Example 18.2, (4S)-1-[4-(1,1-dioxido-1-thia-6-azaspiro[3.3]hept-6-yl)phenyl]-N,4-dimethyl-8-(trifluoromethoxy)-4,5-dihydro-3H-2,3-benzodiazepine-3-carboxamide], for which the IC50 turned out to be 30 nM with MOLM-13 cells (Homo sapiens, MOLM-13); 10 nM at BRD4 (BD1); 30 nM in the experiment with MOLP-8 cells (Homo sapiens, MOLP-8); 30 nM in the experiment on B16F10 cells (Mus musculus, B16-F10).

Consider `CNC(=O)N1N=C(c2ccc(N3CCN4CCCC4C3)cc2)c2cc(OC)c(OC)cc2CC1C` (racemic) [Example 30, (±)-1-[4-(hexahydropyrrolo[1,2-a]pyrazin-2(1H)-yl)phenyl]-7,8-dimethoxy-N,4-dimethyl-4,5-dihydro-3H-2,3-benzodiazepine-3-carboxamide], for which the IC50 in the experiment on MOLM-13 cells (Homo sapiens, MOLM-13) turned out to be 200 nM; on BRD4 (BD1), 70 nM; in the experiment on MOLP-8 cells (Homo sapiens, MOLP-8) it was 90 nM.
